Measurements reported in patent US20070270403A1 (priority 2003, published 2007).
Where two headings read alike, the source gives them in different places.

Legend:
[1] = system: DA release in NAcc; test: In vivo microvoltammetry, DA release in NAcc (clozapine studies); design: species or system Sprague-Dawley Rattus Norvegicus; settings: ketanserin 3 mg/kg s.c. substituted for clozapine
Description: (§1) There is an increasing awareness that a psychosis, similar to that of schizophrenic psychosis, can be derived from cocaine addiction. […] Release mechanisms for monoamines, were determined by using a depolarization blocker, gamma-butyrolactone (γBL). […] Acute and Subacute studies were performed for each treatment group.
(§2) The stereotaxic equipment was purchased from David Kopf Instruments, Tujunga, Calif. A Ag/AgCl reference electrode was placed in contact with dura, 7 mm anteriorally and contralaterally to the indicator microelectrode. A stainless steel auxiliary microelectrode was placed in contact with dura. BRODERICK PROBE® microelectrodes were manufactured on site.
(§3) In vivo microvoltammetric studies on conscious Sprague-Dawley laboratory rats were begun nine to fifteen days after the aseptic surgical operations were performed. On each experimental day, the animal was placed in a Plexiglas-copper faradaic chamber. The three-microelectrode assembly, enclosed within the animal's prosthetic acrylic cap, was connected to a CV37 detector by means of a mercury commutator (Br. Res. Instr., Princeton, N.J.), a flexible cable, and a mating connector (BJM Electronics, Staten Island, N.Y.). The CV37 detector was electrically connected to a Minigard surge suppresser (Jefferson Electric, Magnetek, N.Y.) which was then connected to an electrical ground in isolation. […] Each animal was used as its own control. Changes in synaptic concentrations of DA and 5-HT are presented as percent change (% of control) in order to minimize normal between-animal variations. […] In vivo microvoltammetric scans were recorded in sec and repeated every five min for a period of 2 hrs before each treatment and a period of two hrs after each treatment.
(§4) Potentials were applied with a CV37 detector (BAS, West Lafayette, Ind.). Potentials were applied from −0.2V to +0.4V with respect to a Ag/AgCl (1M NaCl) electrode, at a scan rate of 10 mV/sec at time constants of 5 and 1 tau. One scan was completed in 60 sec. Non-faradaic charging current was eliminated in the first 25 sec.
(§5) Calibration curves were determined experimentally, in vitro, in a freshly prepared deoxygenated physiological saline-phosphate buffer solution (0.01 M, pH=7.4). We use ultra pure Nitrogen (N2) (T. W. Smith Corp., Bklyn, N.Y.) to deoxygenate the buffer solution. […] Calibration studies were also performed in freshly prepared deoxygenated buffer solutions containing phosphotidylethanolamine (PEA), combined with bovine serum albumin (BSA) (Sigma Aldrich, St. Louis, Mo.), a solution which closely mimics brain constituents. […] Detection limits for basal synaptic concentrations of DA and 5-HT in NAcc were 12 nM and 2 nM respectively.

[2] = system: 5-HT release in NAcc; test: In vivo microvoltammetry, 5-HT release in NAcc (clozapine studies); design: species or system Sprague-Dawley Rattus Norvegicus; settings: ketanserin 3 mg/kg s.c. substituted for clozapine
Description: as §1, §2, §3, §4, §5

[3] = system: Sprague-Dawley laboratory rats; test: Locomotor activity (ambulations) by infrared photobeams (clozapine studies); format: in vivo, Sprague-Dawley Rattus Norvegicus; settings: ketanserin 3 mg/kg s.c. substituted for clozapine
Excerpt: Locomotor activity (ambulation) was monitored with infrared photobeams at the same time as DA and 5-HT release in NAcc was detected with BRODERICK PROBES® in conjunction with In Vivo Microvoltammetry. The chamber was faradaic, covered with copper to refract possible electrical artifacts (dimensions: 24 in (width) by 18 in (depth) by 23.5 in (height)). A 16 by 16 array of these infrared photobeams, were held in place by an aluminum frame which was situated ¾ in above the Plexiglas floor of the chamber to detect locomotor activity. Photobeams were sampled by a Pentium computer to define the x-y position of the animal within a 1.5 in resolution every 100 msec. When an x-y position was calculated, it was used to define the frequency of locomotor activity in counts. The locomotor activity system is a modified version of an Activity Pattern Monitor (APM) (San Diego Instruments, San Diego, Calif.). Behavioral data is presented in absolute frequency, i.e., number of counts recorded.
The first hr pre-drug allowed exploratory behavior. Exploratory behavior is defined as open-field behavior of ambulations (forward locomotion) wherein animals respond to the stimuli of a novel environment with high frequency of behavioral counts. The second hr pre-drug allowed the animal to become habituated before treatment.
In the Acute studies, each drug was administered at the end of the habituation period. Baseline (control) values were taken every five min for the last thirty min of the habituation period at which time drug injection(s) took place. Electrochemical recordings for DA and 5-HT release in NAcc, were continued for two hrs; at the same time, locomotor behavior continued to be monitored and recorded with infrared photobeams. At the end of the 2 hr drug(s) study, animals were then placed back in their home cages.
In the Subacute studies, which took place twenty-four hrs later, the animals were again placed in the faradaic behavioral chamber and no further drug was administered. Recordings of separate electrochemical signals for DA and 5-HT release in NAcc, were taken for one hr; at the same time, locomotor behavior was monitored and recorded with infrared photobeams.
(§6) Neurochemical and behavioral data, derived from the last thirty minutes of the habituation period, provided the baseline data. […] Where appropriate, data points in the time course were subjected to 95% Confidence Limits (C.L.).

[4] = target: 5-HT2A receptors (Homo sapiens, UniProt P28223); settings: cited from earlier work
[5] = target: DA2 receptors (Homo sapiens, UniProt P14416); settings: ketanserin: DA receptors; cited from earlier work
[6] = system: DA release in NAcc; test: In vivo microvoltammetry, DA release in NAcc (risperidone studies); design: species or system Sprague-Dawley Rattus Norvegicus
Description: (§7) In vivo microvoltammetry was used to detect dopamine (DA) and serotonin (5-HT) release from Nucleus Accumbens (NAcc) of freely moving, male, Sprague Dawley laboratory rats, while animals' locomotor (forward ambulations) and stereotypic behavior (fine movements of sniffing and grooming) were monitored at the same time with infrared photobeams. Monoamine release mechanisms were determined by using a depolarization blocker, gamma-butyrolactone (γBL). Miniature carbon sensors, BRODERICK PROBE® Lauric Acid Microelectrodes, smaller than a human hair, were used in conjunction with a semidifferential electrochemical circuit, to detect release of each monoamine in separate signals and within seconds. […] The hypothesis for the present studies is derived from a growing body of evidence that cocaine-induced psychosis and schizophrenic psychosis share similar neurochemical and behavioral manifestations.
(§8) Animals were purchased from Charles River Laboratories, Kingston, N.Y. and were housed in our animal care facilities for two weeks before surgery was performed. The Animal Care Facility operates under the auspices of the CUNY, City College Institutional Animal Care and Use Committee (IACUC) in compliance with National Institute of Health (NIH) guidelines. The weight range for the animals, at the time of the studies, was 350-475 g. Animals were group housed before surgery, individually housed after surgery and fed Purina Rat Chow and water ad libitum. A twelve hr dark-light cycle was maintained both in the housing of the animals and throughout the experimental studies. […] A Ag/AgCl reference electrode was placed in contact with dura, 7 mm anteriorally and contralaterally to the indicator microelectrode. A stainless steel auxiliary microelectrode, was placed in contact with dura.
In vivo microvoltammetric studies on conscious Sprague-Dawley laboratory rats were begun nine to fifteen days after the aseptic surgical operations were performed. On each experimental day, animals were placed in a Plexiglas-copper faradaic chamber. The three-microelectrode assembly, enclosed within the animal's prosthetic acrylic cap, was connected to a CV37 detector by means of a mercury commutator (Br. Res. Instr., Princeton, N.J.), a flexible cable, and a mating connector (BJM Electronics, Staten Island, N.Y.). […] In vivo microvoltammetric scans were recorded in sec and repeated every five min for a period of 2 hrs before each treatment and a period of two hrs after each treatment.
The first hr pre-drug, allowed exploratory behavior. […] Each animal was monitored for possible recovery, withdrawal or after-effects. of each treatment WHILE open-field behaviors of locomotions and stereotypy were monitored with computerized infrared photocell beams which surround the faradaic chamber.

[7] = system: 5-HT release in NAcc; test: In vivo microvoltammetry, 5-HT release in NAcc (risperidone studies); design: species or system Sprague-Dawley Rattus Norvegicus
Description: as §7, §8
In vivo microvoltammetric studies on conscious Sprague-Dawley laboratory rats were begun nine to fifteen days after the aseptic surgical operations were performed. On each experimental day, animals were placed in a Plexiglas-copper faradaic chamber. The three-microelectrode assembly, enclosed within the animal's prosthetic acrylic cap, was connected to a CV37 detector by means of a mercury commutator (Br. Res. Instr., Princeton, N.J.), a flexible cable, and a mating connector (BJM Electronics, Staten Island, N.Y.). The CV37 detector was electrically connected to a Minigard surge suppresser (Jefferson Electric, Magnetek, N.Y.) which was then connected to an electrical ground in isolation. […] Each animal was used as its own control. In vivo microvoltammetric scans were recorded in sec and repeated every five min for a period of 2 hrs before each treatment and a period of two hrs after each treatment.
(§9) The first hr pre-drug, allowed exploratory behavior. Exploratory behavior is defined as open-field behavior of ambulations (forward locomotion) and stereotypy (fine movements of sniffing and grooming), wherein animals respond to the stimuli of a novel environment with a high frequency of behavioral counts. The second hr pre-drug allowed the animal to become habituated before treatment. […] In the acute studies, each drug was administered […]. For the subacute studies, twenty four hrs later, the animals were again placed in the faradaic behavioral chamber and no further drug was administered. Each animal was monitored for possible recovery, withdrawal or after-effects. of each treatment WHILE open-field behaviors of locomotions and stereotypy were monitored with computerized infrared photocell beams which surround the faradaic chamber.

[8] = system: Sprague-Dawley laboratory rats; test: Locomotion (ambulations) by infrared photobeams (risperidone studies); format: in vivo, Sprague-Dawley Rattus Norvegicus
Description: (§10) Behaviors were monitored with infrared photobeams which surrounded the faradaic chamber. Open-field behaviors of locomotion (ambulations) and stereotypy (fine movements of sniffing and grooming) were recorded in sec and repeated every five min for a period of 2 hrs before each treatment and a period of 2 hrs after each treatment. Open-field behaviors were monitored simultaneously with in vivo microvoltammetric recordings of monoamines.
as §9
(§11) The faradaic chamber was made of plexiglas and covered with copper wire to refract possible electrical artifacts (dimensions: 24 inch (width) by 18 inch (depth) by 23.5 inch (height)). A 16 by 16 array of infrared photobeams, held in place by an aluminum frame, was situated ¾ inch above the Plexiglas floor of the chamber to detect locomotor and stereotypic movements. Photobeams were sampled by a Pentium computer to define the x-y position of the animal within a 1.5 inch resolution every 100 msec. When an x-y position was calculated, it was used to define a particular behavioral parameter. This system is a modified version of an Activity Pattern Monitor (APM) (San Diego Instruments, San Diego, Calif.). Behavioral data is presented in terms of Frequency of Events.
as §6

[9] = system: Sprague-Dawley laboratory rats; test: Stereotypy (fine movements of sniffing and grooming) by infrared photobeams (risperidone studies); format: in vivo, Sprague-Dawley Rattus Norvegicus
Description: as §10, §9, §11, §6

[10] = humans, cited from earlier work
[11] = target: T1, DA2 receptor (Rattus norvegicus, UniProt P61169); settings: cited from earlier work
T1 construct: host or cells: brain (nucleus accumbens) of dosed animals

[12] = system: 5-hydroxyindoleacetic acid (5-HIAA) in NAcc; settings: risperidone 0.2 mg/kg s.c. and 2.0 mg/kg s.c., time-dependent; cited from earlier work
[13] = risperidone 2 mg/kg s.c. + cocaine 10 mg/kg i.p., versus cocaine group
[14] = risperidone 2 mg/kg s.c. + cocaine 10 mg/kg i.p., entire 2 hr period
[15] = risperidone 2 mg/kg s.c., cocaine 10 mg/kg i.p. or both, 2 hr
[16] = 24 hr after risperidone 2 mg/kg s.c.
[17] = 24 hr after single dose, no further drug

Sequence of DA2 receptors (P14416 whole entry): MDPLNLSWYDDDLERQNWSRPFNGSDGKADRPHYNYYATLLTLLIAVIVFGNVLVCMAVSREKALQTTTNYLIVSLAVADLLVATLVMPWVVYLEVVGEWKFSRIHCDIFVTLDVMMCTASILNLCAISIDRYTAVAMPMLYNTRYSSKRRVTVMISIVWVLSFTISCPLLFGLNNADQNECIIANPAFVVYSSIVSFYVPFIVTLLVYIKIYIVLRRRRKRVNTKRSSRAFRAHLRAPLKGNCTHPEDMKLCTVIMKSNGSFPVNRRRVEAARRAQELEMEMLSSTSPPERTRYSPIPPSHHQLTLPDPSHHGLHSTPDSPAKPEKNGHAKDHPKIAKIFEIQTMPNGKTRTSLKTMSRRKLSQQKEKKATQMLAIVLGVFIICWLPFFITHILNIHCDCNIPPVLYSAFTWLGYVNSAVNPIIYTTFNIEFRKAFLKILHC
T1 sequence (P61169 whole entry): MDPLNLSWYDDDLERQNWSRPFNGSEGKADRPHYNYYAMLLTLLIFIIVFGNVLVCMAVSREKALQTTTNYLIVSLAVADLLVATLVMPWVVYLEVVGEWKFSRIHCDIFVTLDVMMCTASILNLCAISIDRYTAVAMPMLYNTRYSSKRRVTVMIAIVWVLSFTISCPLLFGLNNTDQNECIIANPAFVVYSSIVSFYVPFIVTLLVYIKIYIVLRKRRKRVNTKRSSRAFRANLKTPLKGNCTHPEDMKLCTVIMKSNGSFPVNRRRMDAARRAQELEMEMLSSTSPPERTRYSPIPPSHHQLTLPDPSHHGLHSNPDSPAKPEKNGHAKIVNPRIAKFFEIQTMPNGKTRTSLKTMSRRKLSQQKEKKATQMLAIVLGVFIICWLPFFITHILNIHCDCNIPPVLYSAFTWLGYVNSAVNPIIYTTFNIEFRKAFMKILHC
Sequence of 5-HT2A receptors (P28223 whole entry): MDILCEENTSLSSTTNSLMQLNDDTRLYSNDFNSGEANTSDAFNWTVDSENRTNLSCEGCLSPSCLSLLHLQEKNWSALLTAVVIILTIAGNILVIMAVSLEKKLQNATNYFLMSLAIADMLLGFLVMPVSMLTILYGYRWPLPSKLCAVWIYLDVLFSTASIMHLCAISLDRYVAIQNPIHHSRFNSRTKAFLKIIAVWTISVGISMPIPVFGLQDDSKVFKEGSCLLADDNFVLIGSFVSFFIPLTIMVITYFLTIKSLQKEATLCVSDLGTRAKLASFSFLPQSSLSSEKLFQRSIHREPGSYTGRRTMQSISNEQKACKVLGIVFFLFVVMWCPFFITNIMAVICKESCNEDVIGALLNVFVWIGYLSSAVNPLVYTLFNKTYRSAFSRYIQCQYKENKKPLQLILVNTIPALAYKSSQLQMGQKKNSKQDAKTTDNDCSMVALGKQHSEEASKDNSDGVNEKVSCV

Compound: O=C(c1ccc(F)cc1)C1CCN(CCn2c(=O)[nH]c3ccccc3c2=O)CC1 [ketanserin]
- Blockade of cocaine-induced DA release, Acute, compared with clozapine [1]: weaker than that of clozapine
- Blockade of cocaine-induced 5-HT release, Acute, compared with clozapine [2]: weaker than that of clozapine
- Blockade of cocaine-induced psychomotor stimulant behavior, Acute, compared with clozapine [3]: weaker than that of clozapine
- Affinity for 5-HT2A receptors [4]: high affinity
- Affinity for DA2 receptors [5]: does not bind

Compound: Cc1nc2n(c(=O)c1CCN1CCC(c3noc4cc(F)ccc34)CC1)CCCC2 [Risperidone, risperidone]
- DA release in NAcc Day 2 versus Day 1 baseline, Subacute ([6]; 24 hr after single dose (risperidone 2 mg/kg s.c., cocaine 10 mg/kg i.p. or both), no further drug): returned to baseline
- DA release in NAcc versus baseline (habituation), Day 1 Acute ([6]; risperidone 2 mg/kg s.c. (N=5) or cocaine 10 mg/kg i.p. (N=4), 2 hr): significantly increased
- Effect on cocaine-induced DA release, Acute, first hr [6, 13]: significant blockade
- Effect on cocaine-induced DA release, Acute, second hr [6, 13]: did not completely block
- 5-HT release in NAcc Day 2 versus Day 1 baseline, Subacute ([7]; 24 hr after single dose, no further drug, 1 hr, cocaine: 15, 20, 50, 55 min time points): significantly increased
- Increase in 5-HT release in NAcc during the time course (up to) ([7]; Acute, risperidone 2 mg/kg s.c.): about 60%
- Further increase in 5-HT release on Day 2 compared to drug effect on Day 1 (approximate average) ([7]; Subacute, risperidone 2 mg/kg s.c. on Day 1): ~25%
- Effect on cocaine-induced 5-HT release, Acute [7, 14]: blocked
- 5-HT release in NAcc versus baseline (habituation), Day 1 Acute [7, 15]: significantly increased
- Locomotor activity frequency, Day 2 (Subacute) [8, 16]: about 200 counts
- Locomotion Day 2 versus Day 1 baseline, Subacute [8, 17]: did not affect locomotion to a statistically significant degree
- Locomotor activity frequency with drug treatment, Day1 ([8]; risperidone 2 mg/kg s.c.): 50 counts
- Effect on cocaine-induced locomotor (psychostimulant) activity, Acute [8, 14]: blocked
- Locomotor activity (ambulations) versus baseline (habituation), Day 1 Acute [8, 15]: did not affect
- Stereotypy maximum frequency, Day 2 (Subacute) [9, 16]: about 50 counts
- Stereotypy Day 2 versus Day 1 baseline, Subacute [9, 17]: increased stereotypy to a statistically significant degree
- Stereotypy maximum frequency with drug treatment, Day 1 ([9]; risperidone 2 mg/kg s.c.): 12 counts
- Effect on cocaine-induced stereotypic activity, Acute [9, 14]: blocked
- Stereotypy versus baseline (habituation), Day 1 Acute [9, 15]: did not affect
- half-life ([10]; fast metabolizers): 3 h
- half-life ([10]; slow metabolizers): 20 h
- ED50 of DA2 receptor occupancy ([11]; NAcc, [3H] spiperone labeling studies): 1.0 mg/kg
- DA2 receptor occupancy ([11]; high dose risperidone): 70%
- Affinity for DA2 receptors [5]: high affinity
- Increase in 5-HIAA concentrations above baseline (up to) [12]: up to 20%
